# Data from ChEMBL document CHEMBL1135371, “Synthesis and pharmacology of isoquinuclidine derivatives as 5-HT(3) ligands” (Bioorg Med Chem Lett, 2002).
# What was measured:
# [1] = biological target: T1, 5-hydroxytryptamine receptor 4 (Cavia porcellus, UniProt O70528); assay: Binding affinity towards 5-hydroxytryptamine 4 receptor in striatum membranes of guinea-pig brain was evaluated; format: cell membranes, Membrane
# [2] = biological target: T2, Serotonin 3 (5-HT3) receptor (Rattus norvegicus, UniProt P35563+Q9JJ16); assay: Binding affinity towards 5-HT3 receptor in rat was evaluated
# T2 sequence (P35563 whole entry): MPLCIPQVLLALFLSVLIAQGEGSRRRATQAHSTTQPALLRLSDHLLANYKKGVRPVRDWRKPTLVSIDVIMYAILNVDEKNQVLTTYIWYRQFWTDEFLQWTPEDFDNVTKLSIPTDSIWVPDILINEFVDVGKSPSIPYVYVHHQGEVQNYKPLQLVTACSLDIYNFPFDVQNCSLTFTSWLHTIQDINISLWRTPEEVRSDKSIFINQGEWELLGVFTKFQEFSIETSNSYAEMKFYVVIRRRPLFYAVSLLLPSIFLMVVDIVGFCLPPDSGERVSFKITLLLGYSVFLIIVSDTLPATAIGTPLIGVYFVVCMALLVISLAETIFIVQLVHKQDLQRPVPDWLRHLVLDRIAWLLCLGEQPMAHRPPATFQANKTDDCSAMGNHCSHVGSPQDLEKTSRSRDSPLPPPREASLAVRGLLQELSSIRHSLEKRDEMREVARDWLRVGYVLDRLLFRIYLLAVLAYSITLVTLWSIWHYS
# T2 sequence (Q9JJ16 whole entry): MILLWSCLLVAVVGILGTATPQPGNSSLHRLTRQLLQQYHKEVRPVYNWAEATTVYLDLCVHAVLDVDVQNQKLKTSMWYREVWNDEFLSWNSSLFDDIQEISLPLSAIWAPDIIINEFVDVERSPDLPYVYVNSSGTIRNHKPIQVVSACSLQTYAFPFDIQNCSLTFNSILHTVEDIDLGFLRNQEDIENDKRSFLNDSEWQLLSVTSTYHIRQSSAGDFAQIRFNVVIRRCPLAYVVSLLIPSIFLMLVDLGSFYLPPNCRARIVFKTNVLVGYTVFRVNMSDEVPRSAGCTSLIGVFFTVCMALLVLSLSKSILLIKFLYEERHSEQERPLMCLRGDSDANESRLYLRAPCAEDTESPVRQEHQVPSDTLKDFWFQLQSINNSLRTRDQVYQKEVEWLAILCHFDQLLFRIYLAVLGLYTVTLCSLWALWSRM
# [3] = biological target: T1, 5-hydroxytryptamine receptor 4; assay: Binding affinity towards 5-HT4 receptor in striatum membranes of guinea-pig brain was evaluated; format: cell membranes, Membrane
# D(2) dopamine receptor [4] = biological target: T3, D(2) dopamine receptor (Rattus norvegicus, UniProt P61169); assay: Binding affinity towards D2 receptor in rat was evaluated
# T3 sequence (P61169 whole entry): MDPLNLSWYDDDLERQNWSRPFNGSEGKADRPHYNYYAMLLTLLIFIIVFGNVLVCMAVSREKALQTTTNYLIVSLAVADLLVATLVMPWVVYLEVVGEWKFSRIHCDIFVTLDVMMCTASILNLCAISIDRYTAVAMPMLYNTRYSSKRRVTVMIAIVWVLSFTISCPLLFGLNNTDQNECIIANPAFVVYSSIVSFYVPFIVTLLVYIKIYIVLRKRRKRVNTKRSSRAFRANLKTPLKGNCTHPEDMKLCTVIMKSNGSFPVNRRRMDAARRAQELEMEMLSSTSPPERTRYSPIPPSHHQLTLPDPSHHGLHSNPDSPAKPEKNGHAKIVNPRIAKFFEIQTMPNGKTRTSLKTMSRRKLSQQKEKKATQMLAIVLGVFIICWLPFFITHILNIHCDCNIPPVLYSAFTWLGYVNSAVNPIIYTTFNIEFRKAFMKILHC
# D(2) dopamine receptor [5] = biological target: T3, D(2) dopamine receptor; assay: Binding affinity towards Dopamine receptor D2 in rat was evaluated
# [6] = biological target: T2, Serotonin 3 (5-HT3) receptor; assay: Binding affinity towards rat 5-hydroxytryptamine 3 receptor was evaluated; format: protein-complex assay
# T1 sequence (O70528 whole entry): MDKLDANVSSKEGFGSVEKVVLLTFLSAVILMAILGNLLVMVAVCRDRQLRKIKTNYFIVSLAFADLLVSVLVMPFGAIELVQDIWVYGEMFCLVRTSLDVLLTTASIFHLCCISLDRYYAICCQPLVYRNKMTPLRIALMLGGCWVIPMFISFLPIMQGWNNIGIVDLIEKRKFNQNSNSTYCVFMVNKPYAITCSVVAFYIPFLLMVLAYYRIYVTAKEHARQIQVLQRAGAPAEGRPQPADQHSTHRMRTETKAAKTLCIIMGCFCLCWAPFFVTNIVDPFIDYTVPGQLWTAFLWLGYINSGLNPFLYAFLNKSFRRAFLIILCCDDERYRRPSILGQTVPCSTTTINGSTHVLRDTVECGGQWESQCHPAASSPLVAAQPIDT
SMILES,IC50 [1],IC50 [2],Ki [2],IC50 [3],IC50 (D(2) dopamine receptor [4]),IC50 (D(2) dopamine receptor [5]),further results
COc1cc(N)c(Cl)cc1C(=O)NC1CC2CCC1N(C)C2 (centres undefined),1000 nM,> 1000 nM,327 nM,> 1000 nM,1000 nM,> 1000 nM,–
COc1cc(N)c(Cl)cc1C(=O)OC1CC2CCC1N(C)C2 (stereo in doubt; anti),> 1000 nM,–,13.8 nM,–,–,> 1000 nM,–
COc1cc(N)c(Cl)cc1C(=O)NC1CC2CCC1CN2C (stereo in doubt; anti),> 1000 nM,17300 nM,–,–,–,–,Ki (D(2) dopamine receptor [5]): 130 nM
COc1cc(N)c(Cl)cc1C(=O)OC1CC2CCC1N(C)C2 (stereo in doubt; syn),–,–,192 nM,> 1000 nM,> 1000 nM,–,–

# Continued, in another order:
IC50 [1],IC50 [2],Ki [2],IC50 [3],IC50 (D(2) dopamine receptor [4]),IC50 (D(2) dopamine receptor [5]),SMILES,further results
–,–,5.19 nM,–,–,> 1000 nM,COc1cc(N)c(Cl)cc1C(=O)OC1CC2CCC1CN2C (stereo in doubt; anti),Ki [1]: 82.6 nM
–,–,11.2 nM,–,> 1000 nM,–,COc1cc(N)c(Cl)cc1C(=O)OC1CC2CCC1CN2C (stereo in doubt; syn),Ki [3]: 240 nM
–,1000 nM,–,1000 nM,–,–,COc1cc(N)c(Cl)cc1C(=O)NC1CC2CCC1CN2C (stereo in doubt; syn),Ki (D(2) dopamine receptor [4]): 842 nM
–,–,–,> 1000 nM,> 1000 nM,–,CN1C2CCCC1CC(NC(=O)c1nn(C)c3ccccc13)C2 (centres undefined) [GRANISETRON],–
–,–,–,–,–,> 1000 nM,CN1[C@@H]2CC[C@H]1C[C@@H](OC(=O)c1c[nH]c3ccccc13)C2 [TROPISETRON],Ki [1]: 125 nM; Ki [6]: 1.55 nM
